Experimental data reported in ChEMBL document CHEMBL3132840 (Medchemcomm, 2014).
Activity calls are given as the source filed them. The rule behind the calls is not given here.

Key:
Homo sapiens = species: Homo sapiens; assay: Selectivity index, ratio of IC50 for human MAO-B to IC50 for human MAO-A
Cholinesterase = Cholinesterase (Equus caballus, UniProt P81908)
[1] = target: T1, Amine oxidase [flavin-containing] B (Homo sapiens, UniProt P27338)
T1 sequence (P27338 whole entry): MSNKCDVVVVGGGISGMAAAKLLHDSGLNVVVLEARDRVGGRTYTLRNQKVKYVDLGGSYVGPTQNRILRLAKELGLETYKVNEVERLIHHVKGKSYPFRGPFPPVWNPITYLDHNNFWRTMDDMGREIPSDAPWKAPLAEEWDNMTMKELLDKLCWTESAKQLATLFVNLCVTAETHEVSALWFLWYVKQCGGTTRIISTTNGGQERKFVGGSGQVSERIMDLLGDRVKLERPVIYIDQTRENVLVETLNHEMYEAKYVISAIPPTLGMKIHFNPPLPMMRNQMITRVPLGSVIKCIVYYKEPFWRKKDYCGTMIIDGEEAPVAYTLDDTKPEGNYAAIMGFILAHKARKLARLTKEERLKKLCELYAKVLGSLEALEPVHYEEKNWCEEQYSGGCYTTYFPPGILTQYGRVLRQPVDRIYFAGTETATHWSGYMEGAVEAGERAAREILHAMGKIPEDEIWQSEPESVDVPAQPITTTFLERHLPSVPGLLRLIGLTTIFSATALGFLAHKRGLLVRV

Acetylcholinesterase = Acetylcholinesterase (Electrophorus electricus, UniProt O42275); assay: Inhibition of electric eel AChE using acetylthiocholine iodide as substrate incubated for 6 mins prior to substrate addition measured after 60 to 180 secs by Ellman's method
Sequence of Acetylcholinesterase (O42275 whole entry): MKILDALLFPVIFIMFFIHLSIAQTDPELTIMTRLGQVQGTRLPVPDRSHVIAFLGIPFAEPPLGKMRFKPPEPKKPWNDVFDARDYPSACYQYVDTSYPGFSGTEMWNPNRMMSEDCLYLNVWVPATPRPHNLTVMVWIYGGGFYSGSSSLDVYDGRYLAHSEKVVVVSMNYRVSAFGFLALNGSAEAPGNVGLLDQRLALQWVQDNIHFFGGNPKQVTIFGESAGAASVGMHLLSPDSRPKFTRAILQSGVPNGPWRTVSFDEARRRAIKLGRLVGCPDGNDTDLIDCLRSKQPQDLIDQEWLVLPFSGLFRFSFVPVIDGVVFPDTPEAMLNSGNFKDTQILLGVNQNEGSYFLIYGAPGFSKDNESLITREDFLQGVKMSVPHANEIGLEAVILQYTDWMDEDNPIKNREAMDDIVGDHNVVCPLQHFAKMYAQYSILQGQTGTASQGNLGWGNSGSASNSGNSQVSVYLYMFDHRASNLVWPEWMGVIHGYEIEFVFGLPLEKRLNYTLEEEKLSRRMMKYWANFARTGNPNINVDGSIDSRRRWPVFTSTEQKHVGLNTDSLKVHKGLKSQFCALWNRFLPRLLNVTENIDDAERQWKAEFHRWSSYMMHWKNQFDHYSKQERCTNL

[2] = target: T2, Amine oxidase [flavin-containing] A (Homo sapiens, UniProt P21397)
T2 sequence (P21397 whole entry): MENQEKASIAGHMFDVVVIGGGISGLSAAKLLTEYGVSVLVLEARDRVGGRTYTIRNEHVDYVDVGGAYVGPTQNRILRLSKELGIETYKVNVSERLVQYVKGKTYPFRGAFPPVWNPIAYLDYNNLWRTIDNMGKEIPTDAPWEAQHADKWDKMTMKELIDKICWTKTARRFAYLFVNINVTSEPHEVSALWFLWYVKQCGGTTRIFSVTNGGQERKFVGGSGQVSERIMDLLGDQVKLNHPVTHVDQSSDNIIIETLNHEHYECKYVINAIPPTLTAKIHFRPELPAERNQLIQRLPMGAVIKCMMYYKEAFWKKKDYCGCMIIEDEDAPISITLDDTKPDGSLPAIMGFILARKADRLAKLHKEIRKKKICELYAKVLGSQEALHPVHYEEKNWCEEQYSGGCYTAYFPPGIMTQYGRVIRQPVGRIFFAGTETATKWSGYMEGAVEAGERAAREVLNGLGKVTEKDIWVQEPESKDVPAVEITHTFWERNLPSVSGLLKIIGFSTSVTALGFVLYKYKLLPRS

[3] = target: Acetylcholinesterase (Electrophorus electricus) (UniProt O42275); assay: Mixed-type inhibition of electric eel AChE using acetylthiocholine iodide as substrate incubated for 15 mins prior to substrate addition by Lineweaver-Burk plot analysis
Sequence of Acetylcholinesterase (Electrophorus electricus) (O42275 24-633 limits assumed): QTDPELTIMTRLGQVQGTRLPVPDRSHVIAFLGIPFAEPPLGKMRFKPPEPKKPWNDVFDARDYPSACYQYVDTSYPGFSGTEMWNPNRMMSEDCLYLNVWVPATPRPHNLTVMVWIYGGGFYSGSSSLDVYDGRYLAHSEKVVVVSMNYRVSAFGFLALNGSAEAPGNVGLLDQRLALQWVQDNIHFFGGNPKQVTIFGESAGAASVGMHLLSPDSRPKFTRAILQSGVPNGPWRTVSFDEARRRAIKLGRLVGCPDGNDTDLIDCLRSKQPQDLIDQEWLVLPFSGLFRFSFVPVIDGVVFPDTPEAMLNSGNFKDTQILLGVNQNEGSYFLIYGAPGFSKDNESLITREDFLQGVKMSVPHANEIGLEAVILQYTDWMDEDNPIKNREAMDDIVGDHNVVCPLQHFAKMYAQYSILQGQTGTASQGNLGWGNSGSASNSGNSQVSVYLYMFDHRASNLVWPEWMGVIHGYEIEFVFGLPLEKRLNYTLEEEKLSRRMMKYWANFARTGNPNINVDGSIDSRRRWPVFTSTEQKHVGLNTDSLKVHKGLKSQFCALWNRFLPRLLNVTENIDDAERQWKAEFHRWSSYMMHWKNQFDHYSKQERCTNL

Sequence of Cholinesterase (P81908 whole entry): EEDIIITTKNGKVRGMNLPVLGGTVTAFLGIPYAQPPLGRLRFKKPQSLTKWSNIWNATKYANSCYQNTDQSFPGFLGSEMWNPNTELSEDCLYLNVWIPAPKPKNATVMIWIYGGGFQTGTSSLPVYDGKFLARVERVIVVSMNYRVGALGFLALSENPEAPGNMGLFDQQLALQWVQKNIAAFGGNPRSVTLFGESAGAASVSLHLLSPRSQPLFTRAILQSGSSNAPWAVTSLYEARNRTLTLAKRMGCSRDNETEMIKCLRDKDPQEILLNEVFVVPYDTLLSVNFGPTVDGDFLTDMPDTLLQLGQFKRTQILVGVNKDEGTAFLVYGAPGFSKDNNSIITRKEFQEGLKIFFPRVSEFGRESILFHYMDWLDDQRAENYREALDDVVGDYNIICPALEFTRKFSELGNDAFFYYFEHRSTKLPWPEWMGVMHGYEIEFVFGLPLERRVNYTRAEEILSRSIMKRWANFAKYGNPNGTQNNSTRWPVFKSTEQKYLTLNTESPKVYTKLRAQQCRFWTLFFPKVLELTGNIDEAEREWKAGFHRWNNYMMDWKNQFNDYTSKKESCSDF

CCN(CC)CCCCCCOc1ccc(/C=C/c2cc(OC)cc(OC)c2)cc1 showed a Ratio IC50 (Homo sapiens) of 0.31, an IC50 (Cholinesterase) of 13.2 µM and an IC50 [1] of 10.1 µM. It also gave an IC50 (Acetylcholinesterase) of 4.15 µM and an IC50 [2] of 33.1 µM.

Work on COc1cc(/C=C/c2ccc(OCCCCCCN3CCOCC3)cc2)cc(OC)c1 yielded an IC50 (Cholinesterase) of 34.3 µM, an IC50 [1] greater than 100 µM and an IC50 (Acetylcholinesterase) of 24.4 µM. It also gave an IC50 [2] greater than 100 µM.

Oc1ccc(/C=C/c2cc(O)cc(O)c2)cc1 [RESVERATROL] gave an IC50 (Cholinesterase) of 752 µM and an IC50 (Acetylcholinesterase) of 165 µM.

COc1cc(/C=C/c2ccc(OCCCCCCN3CCCCC3)cc2)cc(OC)c1 showed a Ratio IC50 (Homo sapiens) of 0.48, an IC50 (Cholinesterase) of 10.7 µM and an IC50 [1] of 14.2 µM. For the same molecule, the IC50 (Acetylcholinesterase) was 5.02 µM and the IC50 [2] was 29.8 µM.

CCN(CCCCCCOc1ccc(/C=C/c2cc(OC)cc(OC)c2)cc1)Cc1ccccc1 was tested, and the inhibition [3] was “Active”, the Ratio IC50 (Homo sapiens) was 0.65 and the IC50 (Cholinesterase) was 3.64 µM. It also gave an IC50 [1] of 58.3 µM, an IC50 (Acetylcholinesterase) of 1.56 µM and an IC50 [2] of 89.6 µM.

For CCN(CCCCCCOc1ccc(/C=C/c2cc(OC)cc(OC)c2)cc1)Cc1ccccc1OC, the IC50 (Cholinesterase) was 2.27 µM, the IC50 [1] was greater than 100 µM and the IC50 (Acetylcholinesterase) was 54.9 µM. For the same molecule, the IC50 [2] was greater than 100 µM.

COc1cc(/C=C/c2ccc(OCCCCN(C)Cc3ccccc3)cc2)cc(OC)c1 gave a Ratio IC50 (Homo sapiens) of less than 0.35, an IC50 (Cholinesterase) of 40.6 µM and an IC50 [1] of 34.6 µM. The IC50 (Acetylcholinesterase) was 60.9 µM and the IC50 [2] was greater than 100 µM.

In the case of COc1cc(/C=C/c2ccc(OCCCCCCCCN(C)Cc3ccccc3)cc2)cc(OC)c1, the IC50 (Cholinesterase) is reported as 46.8 µM, the IC50 [1] is reported as greater than 100 µM and the IC50 (Acetylcholinesterase) is reported as 26.5 µM. The IC50 [2] was greater than 100 µM.

Work on COc1cc(/C=C/c2ccc(OCCCCCCCN(C)Cc3ccccc3)cc2)cc(OC)c1 yielded a Ratio IC50 (Homo sapiens) of less than 0.64, an IC50 (Cholinesterase) of 41.7 µM and an IC50 [1] of 63.8 µM. The IC50 (Acetylcholinesterase) was 23.4 µM and the IC50 [2] was greater than 100 µM.

Work on CCN(CCCCCCOc1ccc(/C=C/c2cc(OC)cc(OC)c2)cc1)Cc1ccccc1F yielded an IC50 (Cholinesterase) of 53 µM, an IC50 [1] greater than 100 µM and an IC50 (Acetylcholinesterase) of 86.6 µM. It also gave an IC50 [2] greater than 100 µM.

Work on COc1cc(/C=C/c2ccc(OCCCCCCN(C)Cc3ccccc3)cc2)cc(OC)c1 yielded a Ratio IC50 (Homo sapiens) of 0.45, an IC50 (Cholinesterase) of 26.4 µM and an IC50 [1] of 40.3 µM. For the same molecule, the IC50 (Acetylcholinesterase) was 11.7 µM and the IC50 [2] was 90.4 µM.

With COc1cc(/C=C/c2ccc(OCCCN(C)Cc3ccccc3)cc2)cc(OC)c1 the Ratio IC50 (Homo sapiens) was less than 0.5, the IC50 (Cholinesterase) was 77.3 µM and the IC50 [1] was 5.01 µM. For the same molecule, the IC50 (Acetylcholinesterase) was 58.1 µM and the IC50 [2] was greater than 100 µM.
